Data on 7 compounds can be found in paper PMC3131257, “Hypericum lanceolatum (Hypericaceae) as a potential source of new anti-malarial agents: a bioassay-guided fractionation of the stem bark” (Malaria Journal, 2011).

In brackets after ≈: the same amount, converted by molar mass. Structures can show the parent of a compound that is named as a salt. Where two headings read alike, the source gives them in different places. Where only a bound is given, the exact number is not on record here.

The subject of one series is K1. The settings on record: against K1; cited from earlier work.
Series [1] has as its system multidrug-resistant W2mef strain of P. falciparum. As to the kind of experiment: microbe, parasite or virus in culture. Type of series: cell-based, Plasmodium falciparum. On the procedure: (§1) The W2mef (MRA-615) strain was ordered from the Malaria Research and Reference Reagent Resource Centre (MR4, Manassas, VA, USA), and maintained in continuous culture. The SHF4 field isolate previously isolated from a malaria patient in Buea in the South West region of Cameroon, had been stored in liquid nitrogen at the Biotechnology Unit, University of Buea.
(§2) The field isolate and the laboratory strain of P. falciparum were grown and maintained in culture using the method of Trager and Jensen with some modification. All the chemicals except Albumax II (Gibco; Invitrogen, USA), were ordered from Sigma-Aldrich Inc (Germany). Cultures consisted of a 4% haematocrit suspension of O+ human erythrocytes in RPMI 1640 medium supplemented with a gentamicin solution at 0.01 mg/mL, 25 mM HEPES buffer, 25 mM NaHCO3, and 1% Albumax II. Cultures were fed with a gas mixture consisting of 5% CO2 and incubated at 37°C (CO2 incubator Heraeus, Hera cell 150; USA). The estimation of the parasitaemia as well as parasite visualization before incubation was done using both fluorescence (Acridine Orange) and normal light (Giemsa stain) microscopes.
(§3) The drug sensitivity assay was carried out in 96-well microtitration plates as described by Desjardins et al with some modifications. All stock solutions were sterilized by passing them through a 0.2 μm syringe filter and stored at -20°C until required. Similarly, a 2 μg/mL stock solution of quinine dihydrochloride (Rotexmedica, Trittau, Germany) was prepared and used as positive control. The parasitaemia was measured using the parasite lactate dehydrogenase (pLDH) assay.
(§4) The pLDH assay generates optical density (OD) values at various concentrations of the drug as raw data. OD values from control wells represent the maximum amount of pLDH produced by parasites and OD values from blank wells (containing a 4% suspension of non parasitized red blood cells in malaria culture medium) represented background pLDH activity. A 100% growth value, which corresponds to maximum LDH activity, was obtained by subtracting the mean OD value of blank wells from that of control wells. Likewise, the growth value at each concentration of the drug was obtained by adjusting OD values from drug-treated wells for background pLDH activity (parasite-free red blood cells). These values were then expressed as a percentage of the maximal growth value and plotted against corresponding concentrations of the drug using the software HN-NonLin V1.1 [14] to generate log dose-response curves from which the 50%, 90%, 95% and 99% Inhibitory Concentrations (IC50, IC90, IC95 and IC99 respectively) were obtained. Each product was tested in triplicate in each of the two separate experiments, giving a total of six repeats per product and per concentration tested. The IC50 values obtained from these replicates were pooled and expressed as geometric mean IC50 values and the different means compared among themselves by independent samples t-test using SPSS Statistics 17.0 (Chicago, USA).

The test system of series [2] is field isolate (SHF4) of Plasmodium falciparum. The series can be described thus: anti-plasmodial drug sensitivity assay, pLDH method, SHF4 field isolate. Type of series: cell-based. The conditions noted are these: for IC50: Plasmodium falciparum, pure compounds, pLDH assay. On the procedure:
as §1, §2, §3, §4

Series [3] concerns LLC-MK2 monkey kidney epithelial cells. The series can be described thus: cytotoxicity on LLC-MK2 monkey kidney epithelial cells. The settings on record: pure compounds; five days incubation. On the procedure: (§5) The cytotoxicity profiles of the extracts and pure compounds were estimated against LLC-MK2 monkey kidney epithelial cells according to the procedure previously described with some modifications. Cells were cultured under the same conditions as P. falciparum. Cells were distributed in 96-well plates at 20,000 cells per well in 100 μL culture medium, and allowed to attach and become confluent, for 24h. The medium was then removed completely the next day and 100 μL of fresh medium was added to all the wells, followed by 100 μL of crude extract (1000 μg/mL) or pure compounds (200 μg/mL) added in triplicate in row H. A two folds serial dilution was made upward to obtain concentration range of 250 - 3.90 μg/ml (crude extract) or 50 - 0.78 μg/ml (pure compounds), cells at row A serving as control without drug. The plates were incubated for five days at 37°C in 5% CO2 in air. Cells concentration and viability in the presence of extracts or pure compounds were compared with that of control cultures without extracts.

In series [4] the test system is CQ-resistant K1 P. falciparum. The conditions noted are these: betulinic acid from Uapaca nitida root bark; cited from earlier work.
The test system of series [5] is CQ-sensitive T9-96 P. falciparum. The conditions noted are these: betulinic acid from Uapaca nitida root bark; cited from earlier work.
Series [6] concerns W2 strain of P. falciparum. Also noted: method as in PMID 18239315. The settings on record: betulinic acid from Psorospermum glaberrimum; cited from earlier work.
In another series the test system is neural cells. The conditions noted are these: in vitro; cited from earlier work.
Series [7] in a line: cytotoxicity on LLC-MK2 monkey kidney epithelial cells. The conditions noted are these: monkey, LLC-MK2 monkey kidney epithelial cells, CC50 on LLC-MK2, pure compounds; five days incubation. The procedure: as §5
A further series relates to P. falciparum. The arrangement: method as in PMID 9581528. The settings on record: growth of P. falciparum; cited from earlier work.
Setting [8] is: Plasmodium falciparum, read-out: IC50 on W2mef, pure compounds, pLDH assay.
[9] abbreviates: Plasmodium falciparum, read-out: IC50 on W2mef, pure compounds, values expressed in μg/mL (Table 2 footnote *, text b34).
[10] abbreviates: read-out: IC50 on W2mef, pure compounds, pLDH assay.

One may read the IC50 as the midpoint of a concentration-inhibition curve. With 6-hydroxyluteolin-7-O-(1^2-a-rhamnoside, in the series with K1, the IC50 was 2.13 µg/mL.

In the case of `C=C(C)[C@@H]1CC[C@]2(C(=O)O)CC[C@]3(C)[C@H](CC[C@@H]4[C@@]5(C)CC[C@H](O)C(C)(C)[C@@H]5CC[C@]43C)[C@@H]12` [HLT1, 3-hydroxy-lup-20(29)-en-28-oic acid], the IC50 in [1] (setting [8]) was < 5 µM; in series [1] (setting [9]), < 5 µg/mL; in series [1] (setting [10]) it was 4.5 ± 1.35 µM; in [2], 5.6 ± 0.13 µM; in series [4], 19.6 µg/mL (≈ 42.9 µM); in [5], 25.9 µg/mL (≈ 56.7 µM). Further, the IC50 in series [6] was 5.1 µM. Moreover, in series [3], the “CC50 on LLC-MK2” value was found to be 25.00 ± 0.00 µg/mL (≈ 54.7 µM). In the series with neural cells, the “cytotoxic activity against neural cells (in words)” value is on record as “no significant cytotoxic activity”.

One may read the CC50 as the concentration giving 50% cytotoxicity. For the compound `O=C(c1cc(O)ccc1O)c1c(O)cccc1O` [HLT2, 2,2',5,6'-tetrahydroxybenzophenone], the IC50 in [1] (setting [8]) came out at 55.1 ± 0.93 µM; in series [2], 13.4 ± 0.16 µM. Besides, the CC50 at 5 days in series [7] is > 100 µg/mL.

Consider `COc1ccc2c(=O)c3cccc(O)c3oc2c1` [HLT3, 5-hydroxy-3-methoxyxanthone], for which the concentration for half-maximal inhibition (IC50) in series [1] (setting [8]) was < 5 µM; in series [1] (setting [9]) it was < 5 µg/mL; in [1] (setting [10]), 3.26 ± 0.08 µM; in [2], 1.43 ± 0.48 µM. Besides, the cytotoxic concentration (CC50) at 5 days in series [7] was > 100 µg/mL.

For `COc1cccc2c(=O)c3ccc(O)cc3oc12` [HLT4, 3-hydroxy-5-methoxyxanthone], the IC50 was 33.84 ± 0.2 µM in series [1] (setting [8]) and 34.09 ± 0.12 µM in series [2]. The “anti-plasmodial activity (in words)” value in series [1] (against W2mef) and in series [2] (against the field isolate) was “inactive” in each case. This compound also showed a CC50 at 5 days in [7] of 10 to 30 µg/mL (≈ 41.3 to 124 µM). The “CC50 on LLC-MK2” value in [3] is 12.50 ± 0.00 µg/mL (≈ 51.6 µM).

In the case of `C=C[C@H]1C[N@@]2CC[C@H]1C[C@H]2[C@H](O)c1ccnc2ccc(OC)cc12` [QN, quinine dihydrochloride, reference compound], the half-inhibitory concentration (IC50) in [1] (setting [8]) amounted to 0.27 ± 0.04 µM; in [1] (Plasmodium falciparum, read-out: IC50 on W2mef, sub-extracts and fractions, pLDH assay), 0.27 ± 0.04 µg/mL; in [2] it was 0.14 ± 0.05 µM.

For garciniaxanthone, in the series on P. falciparum, the 50% inhibitory concentration (IC50) is 0.96 µg/mL.
